From US12098144B2, “Piperazine indazole glucocorticoid receptor antagonists” (Corcept Therapeutics Incorporated, priority 2021, dated 2024)

Molecular target: T1, glucocorticoid receptor (Homo sapiens, UniProt P04150)
T1 construct: endogenous in cells; ATCC cat
T1 sequence (P04150 1-777): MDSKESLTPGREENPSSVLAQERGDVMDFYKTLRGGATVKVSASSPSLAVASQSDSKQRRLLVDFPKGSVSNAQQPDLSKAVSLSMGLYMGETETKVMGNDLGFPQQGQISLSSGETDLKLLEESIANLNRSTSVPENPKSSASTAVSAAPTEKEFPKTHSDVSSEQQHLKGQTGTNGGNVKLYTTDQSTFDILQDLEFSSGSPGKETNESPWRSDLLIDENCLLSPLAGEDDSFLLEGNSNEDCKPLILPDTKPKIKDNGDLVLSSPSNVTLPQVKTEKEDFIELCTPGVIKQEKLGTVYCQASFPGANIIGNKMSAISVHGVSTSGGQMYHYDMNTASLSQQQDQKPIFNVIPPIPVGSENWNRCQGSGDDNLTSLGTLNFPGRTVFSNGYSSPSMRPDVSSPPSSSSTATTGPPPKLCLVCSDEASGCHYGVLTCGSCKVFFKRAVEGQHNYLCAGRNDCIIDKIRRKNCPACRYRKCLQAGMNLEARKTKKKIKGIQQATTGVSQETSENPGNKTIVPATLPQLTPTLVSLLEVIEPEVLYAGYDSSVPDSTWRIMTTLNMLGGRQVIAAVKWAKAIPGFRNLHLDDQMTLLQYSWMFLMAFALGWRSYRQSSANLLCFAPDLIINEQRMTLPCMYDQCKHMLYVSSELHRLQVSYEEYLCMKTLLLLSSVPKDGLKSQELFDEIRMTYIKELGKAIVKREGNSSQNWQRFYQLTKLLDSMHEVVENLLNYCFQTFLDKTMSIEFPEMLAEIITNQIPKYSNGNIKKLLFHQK
Test: Hep G2 TAT Ki: inhibition of dexamethasone-induced TAT in HepG2 cells (96 well)
Format: cell-based
Conditions: challenge of 100 nM dexamethasone, IC50 converted to Ki by Cheng and Prusoff equation
Protocol: Glucocorticoid mediated activation of TAT occurs by transactivation of glucocorticoid response elements in the TAT promoter by glucocorticoid receptor-agonist complex.
HepG2 cells were cultured using MEME media supplemented with 10% (v/v) foetal bovine serum; 2 mM L-glutamine and 1% (v/v) NEAA at 37° C., 5%/95% (v/v) CO2/air.
Compounds were serially half log diluted in 100% (v/v) dimethylsulphoxide from a 10 mM stock.
HepG2 cells were then lysed with 30 μl of cell lysis buffer containing a protease inhibitor cocktail for 15 minutes at 4° C. […] After 2 hours incubation at 37° C. the reaction was terminated by the addition of 15 μl of 10M aqueous potassium hydroxide solution, and the plates incubated for a further 30 minutes at 37° C.
[compound] and fitting the data to a 4 parameter logistic equation.

| Compound | Ki |
| --- | --- |
| Cc1cc2c(cnn2-c2ccc(F)c(C#N)c2)cc1C1CN(S(=O)(=O)c2cnn(C)n2)CCN1CCC(F)(F)F (single isomer, unassigned) [Example 169, 2-fluoro-5-(6-methyl-5-(4-((2-methyl-2H-1,2,3-triazol-4-yl)sulfonyl)-1-(3,3,3-trifluoropropyl)piperazin-2-yl)-1H-indazol-1-yl)benzonitrile] | 66 nM |
| Cc1cc2c(cnn2-c2ccc(F)cc2)cc1C1CN(S(=O)(=O)c2cn(C)nn2)CCN1CC(C)C (single isomer, unassigned) [Example 101, 1-(4-fluorophenyl)-5-(1-isobutyl-4-((1-methyl-1H-1,2,3-triazol-4-yl)sulfonyl)piperazin-2-yl)-6-methyl-1H-indazole] | 28 nM |
| Cc1cc2c(cnn2-c2ccc(F)cc2)cc1C1CN(S(=O)(=O)N(C)C)CCN1CC(C)C (single isomer, unassigned) [Example 50, 3-(1-(4-fluorophenyl)-6-methyl-1H-indazol-5-yl)-4-isobutyl-N,N-dimethylpiperazine-1-sulfonamide] | 64 nM |
| Cc1cc2c(cnn2-c2ccc(F)cc2)cc1C1CN(S(=O)(=O)c2cnn(C)n2)CCN1CC1CC(F)C1 (single isomer, unassigned) [Example 156, 5-(1-((3-fluorocyclobutyl)methyl)-4-((2-methyl-2H-1,2,3-triazol-4-yl)sulfonyl)piperazin-2-yl)-1-(4-fluorophenyl)-6-methyl-1H-indazole] | 28 nM |
| Cc1cc2c(cnn2-c2ccc(F)cc2)cc1C1CN(S(=O)(=O)c2cnn(C)n2)CC(=O)N1Cc1ccccc1 (centres unmarked) [Example 153, 1-benzyl-6-(1-(4-fluorophenyl)-6-methyl-1H-indazol-5-yl)-4-((2-methyl-2H-1,2,3-triazol-4-yl)sulfonyl)piperazin-2-one] | 380 nM |
| Cc1cc2c(cnn2-c2ccc(F)cc2)cc1C1CN(S(=O)(=O)c2cnccc2C)CCN1CC(C)C (single isomer, unassigned) [Example 112, 1-(4-fluorophenyl)-5-(1-isobutyl-4-((4-methylpyridin-3-yl)sulfonyl)piperazin-2-yl)-6-methyl-1H-indazole] | 36 nM |
| Cc1cc2c(cnn2-c2ccc(F)cc2)cc1C1CN(S(=O)(=O)C2CCC2)CCN1CCC(F)(F)F (single isomer, unassigned) [Example 140, 5-(4-(cyclobutylsulfonyl)-1-(3,3,3-trifluoropropyl)piperazin-2-yl)-1-(4-fluorophenyl)-6-methyl-1H-indazole] | 47 nM |

The remaining molecules from weak to strong by Ki, led by results:

| Ki | Compound |
| --- | --- |
| 140 nM | Cc1cc2c(cnn2-c2ccc(F)cc2)cc1C1CN(S(=O)(=O)c2cnn(C)n2)CCN1C(C)C (centres unmarked) [Example 19, 1-(4-fluorophenyl)-5-(1-isopropyl-4-((2-methyl-2H-1,2,3-triazol-4-yl)sulfonyl)piperazin-2-yl)-6-methyl-1H-indazole] |
| 43 nM | Cc1cc2c(cnn2-c2ccc(F)cc2)cc1C1CN(S(=O)(=O)c2cnn(C)n2)CCN1CC(C)(F)F (single isomer, unassigned) [Example 157, 5-(1-(2,2-difluoropropyl)-4-((2-methyl-2H-1,2,3-triazol-4-yl)sulfonyl)piperazin-2-yl)-1-(4-fluorophenyl)-6-methyl-1H-indazole] |
| 33 nM | Cc1cc2c(cnn2-c2ccc(F)cc2)cc1C1CN(S(=O)(=O)CC(F)(F)F)CCN1CC(C)C (single isomer, unassigned) [Example 106, 1-(4-fluorophenyl)-5-(1-isobutyl-4-((2,2,2-trifluoroethyl)sulfonyl)piperazin-2-yl)-6-methyl-1H-indazole] |
| 8.5 nM | Cc1cc2c(cnn2-c2ccc(F)cc2)cc1C1CN(S(=O)(=O)c2cccnc2)CCN1CC(C)C(F)(F)F (single isomer, unassigned) [Example 145, 1-(4-fluorophenyl)-6-methyl-5-(4-(pyridin-3-ylsulfonyl)-1-(3,3,3-trifluoro-2-methylpropyl)piperazin-2-yl)-1H-indazole] |
